What was measured:
[1] = system: Staphylococcus aureus CCM 4516/08; assay: Screen against bacteria, MIC/IC80; type: cell-based; conditions: SA
[2] = system: Staphylococcus aureus H 5996/08 Methiciline-resistant; assay: Screen against bacteria, MIC/IC80; type: cell-based; conditions: MRSA
[3] = system: Staphylococcus epidermidis H 6966/08; assay: Screen against bacteria, MIC/IC80; type: cell-based; conditions: SE
[4] = system: Enterococcus sp. J 14365/08; assay: Screen against bacteria, MIC/IC80; type: cell-based; conditions: EF
[5] = system: Escherichia coli CCM4517; assay: Screen against bacteria, MIC/IC80; type: cell-based; conditions: EC
[6] = system: Klebsiella pneumoniae D 11750/08; assay: Screen against bacteria, MIC/IC80; type: cell-based; conditions: KP
[7] = system: Klebsiella pneumoniae J 14368/08 ESBL-positive; assay: Screen against bacteria, MIC/IC80; type: cell-based; conditions: KP-E
[8] = system: Pseudomonas aeruginosa CCM 1961; assay: Screen against bacteria, MIC/IC80; type: cell-based; conditions: PA
[9] = system: Candida albicans ATCC 44859; assay: In vitro antifungal activity, MIC by microdilution (NCCLS M27-A)
Description: (§1) In vitro antifungal activities of the compounds were evaluated on the collection of fungal strains deposited at the Department of Biological and Medical Sciences, Faculty of Pharmacy, Charles University, Czech Republic. All the isolates were maintained on Sabouraud dextrose agar prior to being tested.
(§2) Minimum inhibitory concentrations (MICs) were determined by the microdilution format of the NCCLS M27-A guidelines. […] RPMI 1640 (Sevapharma, Prague) medium supplemented with L-glutamine and buffered with 0.165 M morpholinepropanesulfonic acid to pH 7.0 was used as the test medium. The wells of the microdilution tray contained 100 μl of the RPMI 1640 medium with 2-fold serial dilutions of the compounds (1000 to 0.24 μmol/l for the new compounds) and 100 μl of inoculum suspension. Fungal inoculum in RPMI 1640 was prepared to give a final concentration of 5×103±0.2 cfu·ml-1. The trays were incubated at 35° C. and MICs were read visually for filamentous fungi and photometrically for yeasts as an optical density (OD) at 540 nm after 24 h and 48 h. The MICs were defined as 80% inhibition of the growth of control. MICs were determined twice and in duplicate. The deviations from the usually obtained were no higher than the nearest concentration value up and down the dilution scale.

[10] = system: Candida albicans ATCC 90028; assay: as above
[11] = system: Candida parapsilosis ATCC 22019; assay: as above; conditions: CP
Description: as §1, §2

[12] = system: Candida krusei ATCC 6258; assay: as above
[13] = system: Candida krusei E28; assay: as above
Description: All the isolates were maintained on Sabouraud dextrose agar prior to being tested.
as §2

[14] = system: Candida tropicalis 156; assay: as above; conditions: CT
Description: as §1, §2

[15] = system: Candida glabrata 20/l; assay: as above; conditions: CG
[16] = system: Candida lusitaniae 2446/l; assay: as above; conditions: CL
Description: as §1, §2

[17] = system: Aspergillus fumigatus 231; assay: as above; conditions: AF
Description: as §1, §2

[18] = system: Absidia corymbifera 272; assay: as above; conditions: AC
Description: as §1, §2

[19] = system: Trichophyton mentagrophytes 445; assay: as above; conditions: TM
Description: as §1, §2

Measured: MIC/IC80

CCOCCOC(=O)C(C)OC(=O)Cn1cc[n+](C)c1.[Br-] (stereo not shown) [KG160, RS-3-methyl-1-[1-(ethoxyethoxycarbonyl)-1-methylmethoxycarbonylmethyl]imidazolium bromide]
>1 mM: [1]; 24 h | [1]; 48 h | [2]; 24 h | [2]; 48 h | [3]; 24 h | [3]; 48 h | [4]; 24 h | [4]; 48 h | [5]; 24 h | [5]; 48 h | [6]; 24 h | [6]; 48 h | [7]; 24 h | [7]; 48 h | [8]; 24 h | [8]; 48 h | [9]; CA1, 24 h | [9]; CA1, 48 h | [10]; CA2, 24 h | [10]; CA2, 48 h | [11]; 24 h | [11]; 48 h | [12]; CK1, 24 h | [12]; CK1, 48 h | [13]; CK2, 24 h | [13]; CK2, 48 h | [14]; 24 h | [14]; 48 h | [15]; 24 h | [15]; 48 h | [16]; 24 h | [16]; 48 h | [17]; 24 h | [17]; 48 h | [18]; 24 h | [18]; 48 h | [19]; 72 h | [19]; 120 h

COC(=O)[C@@H](OC(=O)C[n+]1ccn(C)c1)c1ccccc1 [KG91, S-3-methyl-1-[1-(methoxycarbonyl)-1-phenylmethoxycarbonylmethyl]imidazolium bromide]
>1 mM: [1]; 24 h | [1]; 48 h | [2]; 24 h | [2]; 48 h | [3]; 24 h | [3]; 48 h | [4]; 24 h | [4]; 48 h | [5]; 24 h | [5]; 48 h | [6]; 24 h | [6]; 48 h | [7]; 24 h | [7]; 48 h | [8]; 24 h | [8]; 48 h | [9]; CA1, 24 h | [9]; CA1, 48 h | [10]; CA2, 24 h | [10]; CA2, 48 h | [11]; 24 h | [11]; 48 h | [12]; CK1, 24 h | [12]; CK1, 48 h | [13]; CK2, 24 h | [13]; CK2, 48 h | [14]; 24 h | [14]; 48 h | [15]; 24 h | [15]; 48 h | [16]; 24 h | [16]; 48 h | [17]; 24 h | [17]; 48 h | [18]; 24 h | [18]; 48 h | [19]; 72 h | [19]; 120 h

— patent publication US8785655B2, “Ionic liquid solvents” (Dublin City University, priority 2009, dated 2014)
